Data as given in patent US8207330B2, “Two-photon absorption material and application thereof” (Ricoh Company, Ltd., priority 2008, dated 2012).

Assay: Two-photon absorption cross-sectional area, Z scan method, Examples C
Type: physicochemical
Settings: tetrahydrofuran solution, wavelength 800 nm
Protocol: Compound 1-7 (porphyrin derivative) of the present invention was dissolved in tetrahydrofuran, and the resultant tetrahydrofuran solution was measured for its two-photon absorption cross-sectional area according to the below-described evaluation method therefor.
The following Comparative Compound 1 was dissolved in tetrahydrofuran, and the resultant tetrahydrofuran solution was measured for its two-photon absorption cross-sectional area according to the below-described evaluation method therefor.
The following Comparative Compound 2, having a typical porphyrin structure, was dissolved in tetrahydrofuran, and the resultant tetrahydrofuran solution was measured for its two-photon absorption cross-sectional area in a similar manner.
The following Comparative Compound 3, having a conventional, typical diazaporphyrin structure, was dissolved in tetrahydrofuran, and the resultant tetrahydrofuran solution was measured for its two-photon absorption cross-sectional area.
[drawing 71] [Method for Measuring Two-Photon Absorption Cross-Sectional Area] […]
A quartz cell filled with each sample solution was placed in a light path through which a focused laser beam was passed. […] The sample solution was measured for its transmittance, and the thus-obtained value and the following theoretical equation (I) were used to determine a nonlinear absorption coefficient of the sample. […]

| Structure (SMILES) | Two-photon absorption cross-sectional area [GM] |
| --- | --- |
| COc1ccc(-c2cc(C3=C(c4cc(-c5ccc(OC)cc5)sc4OC)C(F)(F)C(F)(F)C3(F)F)c(OC)s2)cc1 [Comp. Ex. C-1] | 15 |

Assay: Two-photon absorption cross-sectional area, Z scan method, Examples B
Type: physicochemical
Settings: tetrahydrofuran solution, femtosecond laser, 780 nm to 960 nm (710 nm to 990 nm)
Protocol: Each of Compounds (1), (2), (57), (58), (59), (60), (3), (4), (61), (62), (25), (26), (63), (64), (65), (66), (45), (67), (68), (69), (70), (71), (72), (5), (9), (13), (19), (27), (31), (32), (34), (36), (39), (44), (53) and (55) was dissolved in tetrahydrofuran, and the resultant tetrahydrofuran solution was measured for its two-photon absorption cross-sectional area according to the below-described evaluation method therefor.
This measurement was performed under the following conditions:
Sample concentration: 10^−2 mol to 10^−5 mol (this range covering optimal concentrations of the samples (at which measurements are easily performed));
Light path length of cell: 10 mm (corresponding to the inner diameter of cuvette);
Light: variable femtosecond laser having a wavelength of 710 nm to 990 nm; and
Light power: 10 mW to 800 mW.
The following compound (73) was dissolved in tetrahydrofuran, and the resultant solution was measured for its two-photon absorption cross-sectional area according to the below-described evaluation method therefor.
The following compound (74) was dissolved in tetrahydrofuran, and the resultant solution was measured for its two-photon absorption cross-sectional area according to the below-described evaluation method therefor.
[drawing 68] [Method for Measuring Two-Photon Absorption Cross-Sectional Area]
(§1) FIG. 8 schematically illustrates a system of the method.
(§2) Measuring light source: femtosecond titanium sapphire laser
(§3) Repetition frequency: 80 MHz
(§4) Measuring method: Z scan method
(§5) Inner diameter of cuvette: 10 mm
(§6) Light power for measurement: about 500 mW
(§7) Collection diameter: 40 μm to 50 μm
(§8) A quartz cell filled with each sample solution was placed in a light path through which a focused laser beam was passed. Then, the cell was moved along the light path for Z-scan measurement.
The sample solution was measured for its transmittance, and the thus-obtained value and the following theoretical equation (I) were used to determine a nonlinear absorption coefficient of the sample. T=[ln(1+I0L0β)]/I0L0β (I)
where T denotes a transmittance (%), I0 denotes an excited light density [GW/cm^2], L0 denotes a sample cell length [cm], and β denotes a nonlinear absorption coefficient [cm/GW].
The thus-determined nonlinear absorption coefficient and the following equation (ii) were used to calculate a two-photon absorption cross-sectional area σ. Note that the unit of σ is GM (1 GM=1×10^−50 cm^4·s·photon^−1). σ=1,000×hvβ/[…] (ii)
(§9) where h denotes the Planck's constant [J·s], v denotes a frequency of an incident laser beam [s^−1], NA denotes the Avogadoro's number, and C denotes a concentration of a solution [mol/L].

| Structure (SMILES) | Two-photon absorption cross-sectional area |
| --- | --- |
| CCCCCCC1(CCCCCC)c2cc(-c3c4nc(c(-c5cc(OC)c(OC)c(OC)c5)c5ccc(cc6nc(c(-c7cc(OC)c(OC)c(OC)c7)c7ccc3[nH]7)C=C6)[nH]5)C=C4)ccc2-c2ccc(-c3c4nc(c(-c5cc(OC)c(OC)c(OC)c5)c5ccc([nH]5)c(/C=C/c5ccc(N(c6ccccc6)c6ccccc6)cc5)c5nc(c(-c6cc(OC)c(OC)c(OC)c6)c6ccc3[nH]6)C=C5)C=C4)cc21 [(67)] | 990 GM |
| CCCCCCC1(CCCCCC)c2cc(C3=C4C=CC(=N4)C(c4cc(OC)c(OC)c(OC)c4)=c4ccc5[n]4[Ni][n]4c(ccc43)C(c3cc(OC)c(OC)c(OC)c3)=C3C=CC(=N3)C=5/C=C/c3ccc(N(c4ccccc4)c4ccccc4)cc3)ccc2-c2ccc(C3=c4ccc5[n]4[Ni][n]4c(ccc4C(c4cc(OC)c(OC)c(OC)c4)=C4C=CC3=N4)C=C3C=CC(=N3)C=5c3cc(OC)c(OC)c(OC)c3)cc21 [(68)] | 1,020 GM |
| CCCCCCC1(CCCCCC)c2cc(C3=C4C=CC(=N4)C(c4cc(OC)c(OC)c(OC)c4)=c4ccc5[n]4[Cu][n]4c(ccc43)C(c3cc(OC)c(OC)c(OC)c3)=C3C=CC(=N3)C=5/C=C/c3ccc(N(c4ccccc4)c4ccccc4)cc3)ccc2-c2ccc(C3=c4ccc5[n]4[Cu][n]4c(ccc4C(c4cc(OC)c(OC)c(OC)c4)=C4C=CC3=N4)C=C3C=CC(=N3)C=5c3cc(OC)c(OC)c(OC)c3)cc21 [(69)] | 920 GM |
| CCCCCCC1(CCCCCC)c2cc(C3=C4C=CC(=N4)C(c4cc(OC)c(OC)c(OC)c4)=c4ccc5[n]4[Co][n]4c(ccc43)C(c3cc(OC)c(OC)c(OC)c3)=C3C=CC(=N3)C=5/C=C/c3ccc(N(c4ccccc4)c4ccccc4)cc3)ccc2-c2ccc(C3=c4ccc5[n]4[Co][n]4c(ccc4C(c4cc(OC)c(OC)c(OC)c4)=C4C=CC3=N4)C=C3C=CC(=N3)C=5c3cc(OC)c(OC)c(OC)c3)cc21 [(70)] | 900 GM |
| CC(C)(C)c1c2nc(c(C(C)(C)C)c3ccc([nH]3)c(C(C)(C)C)c3nc(c(C(C)(C)C)c4ccc1[nH]4)C=C3)C=C2 [(73), reference compound] | ≈0 GM |
| COc1ccc(-c2cc(C3=C(c4cc(-c5ccc(OC)cc5)sc4OC)C(F)(F)C(F)(F)C3(F)F)c(OC)s2)cc1 [(74), reference compound] | 15 GM |

Assay: Two-photon absorption cross-sectional area, Z scan method, Examples A (800 nm)
Type: physicochemical
Settings: tetrahydrofuran solution, femtosecond titanium sapphire laser
Protocol: Each of the above-given compounds Nos. 1, 2, 4, 5, 6, 7, 10, 11, 15, 16, 17, 20, 24, 25, 27 and 28 of the present invention was dissolved in tetrahydrofuran, and the resultant solution was measured for its two-photon absorption cross-sectional area according to the below-described evaluation method therefor.
The following compound (29) was dissolved in tetrahydrofuran, and the resultant solution was measured for its two-photon absorption cross-sectional area according to the below-described evaluation method therefor.
The following compound (30) was dissolved in tetrahydrofuran, and the resultant solution was measured for its two-photon absorption cross-sectional area according to the below-described evaluation method therefor.
[drawing 66] [Method for Measuring Two-Photon Absorption Cross-Sectional Area]
as §1, §2, §3, §4
Wavelength of light source: 800 nm
as §5, §6, §7, §8
The sample solution was measured for its transmittance, and the thus-obtained value and the following theoretical equation (1) were used to determine a nonlinear absorption coefficient of the sample. T=[ln(1+I0L0β)]/I0L0β (1) where T denotes a transmittance (%), I0 denotes an excited light density [GW/cm^2], L0 denotes a sample cell length [cm], and β denotes a nonlinear absorption coefficient [cm/GW].
The thus-determined nonlinear absorption coefficient and the following equation (2) were used to calculate a two-photon absorption cross-sectional area σ. Note that the unit of σ is GM (1 GM=1×10^−50 cm^4·s·photon^−1). σ=1,000×hvβ/[…] (2)
as §9

| Structure (SMILES) | Two-photon absorption cross-sectional area |
| --- | --- |
| CC1=C(C)c2nc1c(-c1ccc(C#N)cc1)c1[nH]c(c(C)c1C)c(-c1ccc(/C=C/c3ccc(N(c4ccccc4)c4ccc(C)cc4)cc3)cc1)c1nc(c(-c3ccc(C#N)cc3)c3[nH]c(c(C)c3C)c2-c2ccc(/C=C/c3ccc(N(c4ccccc4)c4ccc(C)cc4)cc3)cc2)C(C)=C1C [compound 5] | 1,480 GM |
| Cc1ccc(N(c2ccc(C)cc2)c2ccc(/C=C/c3ccc(C4=c5ccc6[n]5[Ni][n]5c(ccc5C(c5cccc(C7OCC(C)(C)CO7)c5)=C5C=CC4=N5)C(Cl)=C4C=CC(=N4)C=6c4cccc(C5OCC(C)(C)CO5)c4)cc3)cc2)cc1 [compound 6] | 730 GM |
| CCCCCCc1ccc(N(c2ccc(-c3c4nc(c(-c5c(C)cc(C)cc5C)c5[nH]c(cc6nc(c(-c7c(C)cc(C)cc7C)c7[nH]c3c(CC)c7C)C(C)=C6CC)c(CC)c5C)C(C)=C4CC)cc2)c2ccc(-c3c4nc(c(-c5c(C)cc(C)cc5C)c5[nH]c(cc6nc(c(-c7c(C)cc(C)cc7C)c7[nH]c3c(CC)c7C)C(C)=C6CC)c(CC)c5C)C(C)=C4CC)cc2)cc1 [compound 25] | 1,020 GM |
| CCC1=C(CC)c2nc1c(Br)c1[nH]c(c(CC)c1CC)c(-c1ccc([N+](=O)[O-])cc1)c1nc(c(-c3ccc4c(c3)C(C)(C)c3cc(-c5c6nc(c(-c7ccc([N+](=O)[O-])cc7)c7[nH]c(c(Br)c8nc(c(-c9ccc([N+](=O)[O-])cc9)c9[nH]c5c(CC)c9CC)C(CC)=C8CC)c(CC)c7CC)C(CC)=C6CC)ccc3-4)c3[nH]c(c(CC)c3CC)c2-c2ccc([N+](=O)[O-])cc2)C(CC)=C1CC [compound 27] | 870 GM |
| CCC1=C(CC)C2=C(Br)c3c(CC)c(CC)c4[n]3[Zn][n]3c(c(CC)c(CC)c3=C(c3ccc5c(c3)C(C)(C)c3cc(C6=C7N=C(C(CC)=C7CC)C(c7ccc([N+](=O)[O-])cc7)=c7c(CC)c(CC)c8[n]7[Zn][n]7c(c(CC)c(CC)c76)C(c6ccc([N+](=O)[O-])cc6)=C6N=C(C(CC)=C6CC)C=8Br)ccc3-5)C3=NC(=C4c4ccc([N+](=O)[O-])cc4)C(CC)=C3CC)=C(c3ccc([N+](=O)[O-])cc3)C1=N2 [compound 28] | 590 GM |
| COc1ccc(-c2cc(C3=C(c4cc(-c5ccc(OC)cc5)sc4OC)C(F)(F)C(F)(F)C3(F)F)c(OC)s2)cc1 [compound 30, reference compound] | 15 GM |
